Reference: patent US12606541B2, “PPARg modulators and methods of use” (Eisai R&D Management Co., Ltd., priority 2020, dated 2026)
Read-outs that look alike come from different tables or passages of the source.

Legend:
[1] = molecular target: T1, His6-TEV-PPARγ-(234-505) (Homo sapiens, UniProt P37231); assay: TR-FRET Assay to Measure Co-R Peptide Recruitment to PPARγ; assay type: biochemical; details: Co-R peptide (SMRT-ID2) recruitment; top final concentration 20 μM; read-out: TR-FRET i-Ag; AC50
T1 construct: The His6-TEV-PPARγ-(234-505) protein for assay was expressed and purified; TEV cleavage site (N); made in house
T1 sequence (P37231 234-505): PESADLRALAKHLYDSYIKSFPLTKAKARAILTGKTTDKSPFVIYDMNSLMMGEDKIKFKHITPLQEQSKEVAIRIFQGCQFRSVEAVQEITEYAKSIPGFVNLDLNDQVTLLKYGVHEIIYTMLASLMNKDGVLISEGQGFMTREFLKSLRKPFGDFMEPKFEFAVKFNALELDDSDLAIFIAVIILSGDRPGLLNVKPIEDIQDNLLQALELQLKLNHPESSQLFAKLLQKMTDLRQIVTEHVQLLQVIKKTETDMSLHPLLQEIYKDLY
Outline: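 His-tagged PPARγ (or controls) was preincubated with compound for 20 minutes at room temperature, then 5 nM anti-His terbium antibody and 200 nM FITC-labeled SMRT-ID2 corepressor peptide (final) were added for a further hour. TR-FRET signal was normalized to percent response using 500 nM T0070907 and DMSO controls.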

[2] = tested on: UM-UC-9 engineered cells; assay: Cell proliferation / short-term viability assay, CellTiter-Glo 144 h; assay type: cell-based, human; details: read-out: CTGlo 144 h UMUC9.5, G150
Outline: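 UM-UC-9 engineered assay-ready cells seeded at 500 cells/well in high-glucose DMEM/10% FBS, treated from dose-response plates, grown at 37° C, 5% CO2. CellTiter-Glo 2.0 luminescence read on day 7, with a day-0 pretreatment plate as T0 reference and DMSO wells as negative control.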

SMILES	AC50 [1] [nM]	IC50 ([2]; Homo sapiens, UM-UC-9, 144 h) [nM]	IC50 [2] [nM]
COc1cc(-c2cc(C(=O)N3CCC(C(=O)NCc4cccc5[nH]ncc45)CC3)n[nH]2)c(Cl)cn1 [Example 192, N-((1H-indazol-4-yl)methyl)-1-(5-(5-chloro-2-methoxypyridin-4-yl)-1H-pyrazole-3-carbonyl)piperidine-4-carboxamide]	83.3	375	
COc1cc(-c2cc(C(=O)N3CCC(C(=O)Nc4c(F)ccc5ccnn45)CC34CC4)n[nH]2)c(F)cn1 (racemic) [Example 468, (R)-4-(5-(5-fluoro-2-methoxypyridin-4-yl)-1H-pyrazole-3-carbonyl)-N-(6-fluoropyrazolo[1,5-a]pyridin-7-yl)-4-azaspiro[2.5]octane-7-carboxamide and (S)-4-(5-(5-fluoro-2-methoxypyridin-4-yl)-1H-pyrazole-3-carbonyl)-N-(6-fluoropyrazolo[1,5-a]pyridin-7-yl)-4-azaspiro[2.5]octane-7-carboxamide]	8.3		80
COc1cc(-c2cc(C(=O)N3[C@@H]4CC[C@H]3C[C@H](C(=O)NCc3ccc5[nH]c(C)c(C)c5c3)C4)n[nH]2)c(F)cn1 [Example 285, (1R,3R,5S)—N-[(2,3-dimethyl-1H-indol-5-yl)methyl]-8-[5-(5-fluoro-2-methoxypyridin-4-yl)-1H-pyrazole-3-carbonyl]-8-azabicyclo[3.2.1]octane-3-carboxamide]	7.9	16.3	
COc1cc(-c2cc(C(=O)N3CCC(C(=O)NC(C)c4cn5c(n4)COCC5)CC34CC4)n[nH]2)c(F)cn1 (mixture of isomers) [Example 415, (S)—N—((S)-1-(5,6-dihydro-8-imidazo[2,1-c][1,4]oxazin-2-yl)ethyl)-4-(5-(5-fluoro-2-methoxypyridin-4-yl)-1H-pyrazole-3-carbonyl)-4-azaspiro[2.5]octane-7-carboxamide and (S)—N—((R)-1-(5,6-dihydro-8H-imidazo[2,1-c][1,4]oxazin-2-yl)ethyl)-4-(5-(5-fluoro-2-methoxypyridin-4-yl)-1H-pyrazole-3-carbonyl)-4-azaspiro[2.5]octane-7-carboxamide]	163		524
COc1cc(-c2cc(C(=O)N3CCC(C(=O)NC4[C@@H]5CCC[C@H]4CC5)CC3)n[nH]2)c(F)cn1 (mixture of isomers) [Example 165, N-(bicyclo[3.2.1]octan-8-yl)-1-(5-(5-fluoro-2-methoxypyridin-4-yl)-1H-pyrazole-3-carbonyl)piperidine-4-carboxamide]	179	435	
COc1cc(-c2cc(C(=O)N3CCC(C(=O)NCc4cccc(Cl)c4)C(C)C3)n[nH]2)c(Cl)cn1 (mixture of isomers) [Example 173, 1-(5-(5-chloro-2-methoxypyridin-4-yl)-1H-pyrazole-3-carbonyl)-N-(3-chlorobenzyl)-3-methylpiperidine-4-carboxamide]	674	2100	
COc1cc(-c2cc(C(=O)N3CCC(C(=O)NCc4ccc(C(F)(F)F)nc4)CC3)n[nH]2)c(Cl)cn1 [Example 178, 1-(5-(5-chloro-2-methoxypyridin-4-yl)-1H-pyrazole-3-carbonyl)-N-((6-(trifluoro-15-methyl)pyridin-3-yl)methyl)piperidine-4-carboxamide]	344	1260	
COc1cc(-c2cc(C(=O)N3CCC(C(=O)NC(C)COc4ccc(Cl)cc4)CC3)n[nH]2)c(Cl)cn1 (centres unmarked) [Example 142, 1-(5-(5-chloro-2-methoxypyridin-4-yl)-1H-pyrazole-3-carbonyl)-N-(1-(4-chlorophenoxy)propan-2-yl)piperidine-4-carboxamide]	904	3140	
COc1cc(-c2cc(C(=O)N3CCC(C(=O)NCc4n[nH]c5ccccc45)CC3)n[nH]2)c(Cl)cn1 [Example 201, N-((1H-indazol-3-yl)methyl)-1-(5-(5-chloro-2-methoxypyridin-4-yl)-1H-pyrazole-3-carbonyl)piperidine-4-carboxamide]	77.5	171	
CCc1cc(-c2cc(C(=O)N3CCC(C(=O)NCc4ncc(F)cc4Cl)CC34CC4)n[nH]2)c(F)cn1 (racemic) [Example 483, (S)—N-((3-chloro-5-fluoropyridin-2-yl)methyl)-4-(5-(2-ethyl-5-fluoropyridin-4-yl)-1H-pyrazole-3-carbonyl)-4-azaspiro[2.5]octane-7-carboxamide and (R)—N-((3-chloro-5-fluoropyridin-2-yl)methyl)-4-(5-(2-ethyl-5-fluoropyridin-4-yl)-1H-pyrazole-3-carbonyl)-4-azaspiro[2.5]octane-7-carboxamide]	6.2		44.5
COc1cc(-c2cc(C(=O)N3CCC(C(=O)NCc4cnc(C)o4)CC3)n[nH]2)c(Cl)cn1 [Example 136, 1-(5-(5-chloro-2-methoxypyridin-4-yl)-1H-pyrazole-3-carbonyl)-N-((2-methyloxazol-5-yl)methyl)piperidine-4-carboxamide]	887	6100	
COc1cc(-c2cc(C(=O)N3CCC(C(=O)NC4CCOc5ccccc54)CC3)n[nH]2)c(Cl)cn1 (centres unmarked) [Example 184, 1-(5-(5-chloro-2-methoxypyridin-4-yl)-1H-pyrazole-3-carbonyl)-N (chroman-4-yl)piperidine-4-carboxamide]	215	384	
Cc1cc(-c2cc(C(=O)N3[C@@H]4CC[C@H]3C[C@H](C(=O)N[C@H]3CC[C@@](O)(C(F)(F)F)CC3)C4)n[nH]2)c(F)cn1 [Example 283, (1R,3R,5S)-8-[5-(5-fluoro-2-methylpyridin-4-yl)-1H-pyrazole-3-carbonyl]-N-[(1r,4r)-4-hydroxy-4-(trifluoromethyl)cyclohexyl]-8-azabicyclo[3.2.1]octane-3-carboxamide]	7.5	70.8	
COc1cc(-c2cc(C(=O)N3[C@@H]4CC[C@H]3C[C@H](C(=O)N[C@@H]3CCN(CC5(C(F)(F)F)CC5)C3)C4)n[nH]2)c(F)cn1 [Example 437, (1R,3s,5S)-8-(5-(5-fluoro-2-methoxypyridin-4-yl)-1H-pyrazole-3-carbonyl)-N—((R)-1-((1-(trifluoromethyl)cyclopropyl)methyl)pyrrolidin-3-yl)-8-azabicyclo[3.2.1]octane-3-carboxamide]	14.8	67.6	

More lines, main results first:

AC50 [1] [nM]	SMILES	IC50 ([2]; Homo sapiens, UM-UC-9, 144 h) [nM]	IC50 [2] [nM]
6360	CCO[C@]1(C(F)(F)F)CC[C@H](NC(=O)[C@@H]2CCN(C(=O)c3cc(-c4cc(C)ncn4)[nH]n3)C3(CC3)C2)CC1 (single isomer, unassigned) [Example 308-F]	192	
417	COc1cc(-c2cc(C(=O)N3CCC(C(=O)NCC45CCC(O)(C4)C5)CC34CC4)n[nH]2)c(F)cn1 (centres unmarked) [Example 335, 4-(5-(5-fluoro-2-methoxypyridin-4-yl)-1H-pyrazole-3-carbonyl)-N-((4-hydroxybicyclo[2.1.1]hexan-1-yl)methyl)-4-azaspiro[2.5]octane-7-carboxamide]	6150	
462	COc1cc(-c2cc(C(=O)N3CCC(C(=O)NCc4ncc(C(F)(F)F)cn4)CC3)n[nH]2)c(Cl)cn1 [Example 211, 1-(5-(5-chloro-2-methoxypyridin-4-yl)-1H-pyrazole-3-carbonyl)-N-((5-(trifluoromethyl)pyrimidin-2-yl)methyl)piperidine-4-carboxamide]	3260	
172	CCO[C@]1(C(F)(F)F)CC[C@@H](NC(=O)[C@@H]2CCN(C(=O)c3cc(-c4cc(OC)ncc4F)[nH]n3)C3(CC3)C2)CC1 (single isomer, unassigned) [Example 312-A]	493	
565	COc1cc(-c2cc(C(=O)N3CCC(C(=O)NC4COC(C)C4)CC3)n[nH]2)c(Cl)cn1 (mixture of isomers) [Example 247, 1-(5-(5-chloro-2-methoxypyridin-4-yl)-1H-pyrazole-3-carbonyl)-N-(5-methyltetrahydrofuran-3-yl)piperidine-4-carboxamide]	2230	
912	COc1cc(-c2cc(C(=O)N3CCC(C(=O)Nc4cnn(C(C)C)c4)CC3)n[nH]2)c(Cl)cn1 [Example 205, 1-(5-(5-chloro-2-methoxypyridin-4-yl)-1H-pyrazole-3-carbonyl)-N-(1-isopropyl-1H-pyrazol-4-yl)piperidine-4-carboxamide]	3110	
970	COc1cc(-c2cc(C(=O)N3CCC(C(=O)Nc4cnc(C)c(C)n4)CC3)n[nH]2)c(Cl)cn1 [Example 260, 1-(5-(5-chloro-2-methoxypyridin-4-yl)-1H-pyrazole-3-carbonyl)-N-(5,6-dimethylpyrazin-2-yl)piperidine-4-carboxamide]	4030	
889	COc1cc(-c2cc(C(=O)N3CCC(C(=O)NC4CCN(c5ccccc5)C4=O)CC3)n[nH]2)c(Cl)cn1 (racemic) [Example 207, 1-(5-(5-chloro-2-methoxypyridin-4-yl)-1H-pyrazole-3-carbonyl)-N-(2-oxo-1-phenylpyrrolidin-3-yl)piperidine-4-carboxamide]	5670	
